Assays:
Format in all cases: cell-based
[1] = system: RPMI-8226 leukemia cell line; assay: cells; conditions: Homo sapiens, RPMI-8226, 48 h, read-out: % inhibition RPMI-8226
[2] = system: MOLT-4 leukemia cell line; assay: cells; conditions: Homo sapiens, MOLT-4, 48 h, read-out: % inhibition MOLT-4
[3] = system: HL-60 leukemia cell line; assay: cells; conditions: Homo sapiens, HL-60, 48 h, read-out: % inhibition HL-60
[4] = system: CCRF-CEM leukemia cell line; assay: cells; conditions: Homo sapiens, 48 h, read-out: % inhibition CCRF-CEM
[5] = system: K562 leukemia cell line; conditions: 10 μM compound, 48 h treatment, CellTiter-Blue

Work on C[C@H]1[C@H](OC(=O)CCC(=O)O)O[C@@H]2O[C@@]3(C)CC[C@H]4[C@H](C)CC[C@@H]1[C@@]24OO3 [artesunic acid, Artesunic acid] yielded an inhibition at 10 µM [1] of 27.3 ± 6.1%, an inhibition at 10 µM [2] of 9.9 ± 4.8% and an inhibition at 10 µM [3] of 44.3 ± 7.4%. It also gave an inhibition at 10 µM [4] of 9.4 ± 4%.

Molecule COc1cccc2c1C(=O)c1c(O)c3c(c(O)c1C2=O)C[C@@](O)(C(=O)CO)C[C@@H]3O[C@H]1C[C@H](N)[C@H](O)[C@H](C)O1 [doxorubicin] has an inhibition at 10 µM [1] of 84.1 ± 3.2%, an inhibition at 10 µM [2] of 93.2 ± 2.6% and an inhibition at 10 µM [3] of 91.5 ± 0.6%. For the same molecule, the “% inhibition K562” value [5] was 78.2±4.1% and the inhibition at 10 µM [4] was 92.3 ± 1.3%.
